In data set [1] the test system is Mycobacterium tuberculosis H37Rv. Format: cell-based. The note with it: for MIC: H37Rv, 7H9 liquid medium, at least 90% growth inhibition, 10 days.
For data set [2], the system named is Mycobacterium tuberculosis. The note with it: cited from earlier work.
The format of data set [3] is in vivo, CD-1 female mice. Conditions: p.o. 25 mg/kg, CMC/Tween80 suspension, compared with parent PAS.
Data set [4] has as its system Drug susceptible Mtb strains. Kind of data set: microbe, parasite or virus in culture. Conditions: Mycobacterium tuberculosis. Format: cell-based.
The conditions of data set [5]: p.o. 25 mg/kg.

The values that follow come from publication PMC8941652 (European journal of medicinal chemistry, 2022).

Where two headings read alike, the source gives them in different places.

Consider `CNc1ccc(C(=O)O)c(O)c1` [Compound 14, 2-Hydroxy-4-(methylamino)benzoic acid], for which the MIC result in data set [1] was “inactive”. Also, the “antitubercular potency relative to PAS” value in data set [2] is recorded as “nearly equipotent to PAS”. On to `CC(C)(C)C(=O)OCOC(=O)c1ccc(N)cc1O` [Compound 6, (Pivaloyloxy)methyl 4-amino-2-hydroxybenzoate], for which, in data set [3], the “oral bioavailability of PAS released from the suspension of prodrug” value is listed as “significantly lower than the parent PAS”. Take `Nc1ccc(C(=O)O)c(O)c1` [PAS, para-Aminosalicylic acid]: in data set [4], the MIC was 0.2 to 0.6 µM. In the case of `CCOC(=O)c1cc(F)c(N)cc1O` [Compound 16, Ethyl 4-amino-5-fluoro-2-hydroxybenzoate], the MIC entry in data set [1] is “inactive”. In the case of `Nc1cc(O)c(C(=O)O)cc1F` [Compound 11, 4-Amino-5-fluoro-2-hydroxybenzoic acid], the MIC lay in the range of 6.3 to 25 µM in data set [4]; 6.3 to 50 µg/mL in data set [4] (read-out: MICs against the drug susceptible and MDR strains). For `CC(=O)NC[C@H]1CN(c2ccc(N3CCOCC3)c(F)c2)C(=O)O1` [Linezolid], in data set [4], the MIC was in the range of 0.7 to 1.9 µM. With `[N-]=[N+]=Nc1ccc(C(=O)O)c(O)c1` [Compound 15, 4-Azido-2-hydroxybenzoic acid], in data set [1] (H37Rv MIC), the “loss of activity compared to PAS” value is listed as ~200 fold. The MIC entry in data set [1] is “weakly active”. The “formation of PAS in vivo” value in data set [5] was “no formation of PAS in vivo”. For `CC(C)OC(=O)c1ccc(N)cc1O` [Compound 5, Isopropyl 4-amino-2-hydroxybenzoate], the MIC result in data set [1] was “abolished activity”.
